Measurements taken from patent publication US7259145B2, “Mechanically activated channel blocker” (The Research Foundation of State University of New York, priority 2004, dated 2007).
“Also recorded” adds a separate entry of the source. Non-standard residues stand in square brackets, D forms with d. No end group written: not given here.

Assays:
[1] = Binding to large unilamellar lipid vesicles by tryptophan fluorescence; type: physicochemical
Procedure: Fluorescence measurements were performed as described by Ladokhin et al. (Anal. Biochem. 285, 235245, 2000) with an AMJNCO-Bowman Series 2 spectrofluorimeter. The excitation and emission wavelengths were 280 nm (8 nm band pass, 08 polarizer) and 346 nm (16 nm band pass, 908 polarizer). Large unilamellar vesicles of egg lecithin (Avanti Polar Lipids) were formed by extrusion. Tryptophan (Sigma) and GsMTx4 titration experiments were performed in 8 mM phosphate buffer containing 1 mM EGTA at pH 7. Three spectra were collected at each lipid concentration with both tryptophan and GsMtx4 (both at 30μM). After background subtraction, the mean fluorescence intensity at each lipid concentration was corrected for vesicle scattering (Ladokhin et al., Anal. Biochem, 285, 235245, 2000) and normalized to the zero lipid fluorescence intensity. The results are reported assuming a vesicle diameter of 130 nm, and area per lipid in the monolayer of 0.7 nm2.
To determine if GsMTx4 functions by altering bilayer properties, using the tryptophan fluorescence (Ladokhin et al., supra) of GsMTx4, we measured its binding to large unilamellar lipid vesicles. […]

[2] = test system: stretch-activated channels (SACs); experiment: SAC currents, outside-out patch of rat astrocytes (pressure clamp); type: cell-based; details: for inhibition of SACs (averaged current): 5 μM, rat astrocyte outside-out patch, FIG. 2
Procedure: (§1) Primary reactive rat astrocytes cultures (passages 4 to 10) were prepared as previously described. Primary cultures of chick heart cells were prepared from 11-day-old embryos as previously described (Bett et al., J. Membr. Biol. 173, 237-254, 2000).
(§2) Outside-out patches were formed using pipettes containing 140 mM KCl, 2 mM MgCl2, 10 mM HEPES and 0.5 mM EGTA (as K ? salts). SAC currents were recorded using an Axopatch 200B patch clamp, with pClamp9 software and a Digidata 1322A acquisition system (Axon Instruments). Pressure was applied to the patch pipette with an HSPC-1 pressure clamp, and the patch was perfused using an ALA MP285 perfusion system (ALA Scientific Instruments). GsMTx4 or analog was dissolved in the perfusion solution: 140 mM NaCl, 10 mM Na-HEPES, 5 mM KCl, and 1 mM MgCl2. All experiments were repeated […] times.

cationic SACs [3] = experiment: Inhibition and gating of cationic SACs in vertebrate cell types (affinity, apparent rates); type: cell-based
Procedure: GsMTx4 inhibits ubiquitous cationic SACs in a variety of vertebrate cell types (200-600 nM, for example, chick heart, rat astrocytes and skeletal muscle, and human smooth muscle) (Gottlieb et al., Current Drug Targets—CNS & Neurological Disorders 3:287-295, 2004) despite the fact that they have different kinetic properties and presumably different structure. […] While not intending to be bound by any particular theory, it is believed, based on predictions using the Poisson-Boltzmann models, that this effect is seen when GsMTx4 is located within about 1.5 nm of the channel vestibule.
To determine if GsMTx4 functions by altering bilayer properties, using the tryptophan fluorescence (Ladokhin et al., supra) of GsMTx4, we measured its binding to large unilamellar lipid vesicles. The partition coefficient, defined as ([GsMTx4]bil/[Lipid])/([GsMTx4]aq/[H2O]) (where the subscripts denote the bilayer and aqueous phases, respectively, for example see White et al., Methods Enzymol. 295, 62-87, 1998), was ˜3×10^5 corresponding to an adsorption coefficient of 10 ^−3 cm (defined as ^2bil/[GsMTx4 ]aq, where ^2bil denotes the surface density, in moles per unit area). […] This has two implications. First, the intrinsic affinity between a lipid-bound GsMTx4 and the channel could be quite modest and yet account for the observed KD (Kim et al., Biophys. J. 60, 135148, 1991). Second, the mean surface density of GsMTx4 is sufficiently high that fast exchange (50 ms) between the bulk bilayer and the lipids adjacent to the channel can alter the local (and global) bilayer mechanical properties. The apparent association and dissociation rates for SAC effects (Ka≈10^6 M^−1 s^−1, KD≈0.2 s^−1) are consistent with such a fast exchange (as well as slower, more specific binding).

gA channels = experiment: Gramicidin (gA) channel gating in lipid bilayer; type: biochemical
Procedure: FIG. 3 is a representation of the effect of GsMTx4 on gA channels. a, Current traces before and after addition of 200 nM GsMTx4 to both sides of a bilayer doped with chain-shortened des-Val 1-Gly 2-gA (gA2(13)) and [Ala 1]gA (AgA(15)) (numbers in parenthesis denote number of residues in the sequence): gA2 is the enantiomer of gA20. b, c, Single-channel currents (b) and lifetimes (c) as a function of GsMTx4 concentration (see Methods). d, Average lifetime (t) as a function of channel length, helix sense and identity of the aromatic at the channel/solution interface. gA2(13) and AgA(15) as above, AgA2(15) is [D-Ala 1]gA2, gT is [Tyr9,11,13,15]gA (ref. 21). 200 nM GsMTx4; columns and error bars denote mean±s.d. (n≧3).
The effect of L-GsMTx-4 on gA gating was first determined. gA channels are dimers formed by the transbilayer association of monomers in opposing monolayers (O'Connell et al., Science 250, 1256-1259, 1990). Channel formation is generally associated with local bilayer thinning, which makes gA monomer ⇄ dimer equilibrium and thus the channel lifetime and appearance rate sensitive to bilayer thickness, elastic moduli and curvature stress. Thus, if GsMTx4 binds to the lipid bilayer, one would expect it to also alter the lipid packing adjacent to the channel and thus the gA gating kinetics and, because it is cationic decrease the channel current.

cationic SACs [4] = details: chick heart, rat astrocytes and skeletal muscle, human smooth muscle; cited from earlier work
[5] = test system: stretch-activated channels (SACs); experiment: SAC currents, outside-out patch of chick heart cells; type: cell-based
Procedure: as §1, §2

TRPC1 = experiment: Stretch activated channels in CHO cells transfected to express TRPC1; type: cell-based; details: CHO cells expressing TRPC1
[6] = 5 mM GsMTx4 [sic], chick heart outside-out patch

GsMTx4
adsorption coefficient ([1]; corresponding to the partition coefficient): 10 ^−3 cm | partition coefficient ([GsMTx4]bil/[Lipid])/([GsMTx4]aq/[H2O]) ([1]; large unilamellar lipid vesicles, pH 7): ~3×10^5 | suppression of average inward current ([2]; 5 μM GsMTx4 (b40 also prints 5 mM), outside-out astrocyte patch): 80% | open state dwell time distribution ([2]; 5 μM GsMTx4, data not shown): not affected | inhibition of SACs (averaged current) [2]: both inhibit SACs | membrane tension required for SAC activation ([2]; applied to extracellular face, FIGS. 1a and 1b): increasing the membrane tension required for activation | apparent association rate for SAC effects (Ka) (cationic SACs [3]): ≈ 10^6 M^−1 s^−1 | apparent dissociation rate for SAC effects (KD) (cationic SACs [3]): ≈ 0.2 s^−1 | Kd (cationic SACs [3]; SAC gating, read-out: effective KD for gating): 500 nM | gA single-channel current (gA channels; FIG. 3b): reduces the single-channel current | increase in gA channel appearance rate (gA channels; GsMTx4, FIG. 3): 10-25 fold | increase in gA open channel lifetime (gA channels; GsMTx4, FIG. 3c): approximately 2 fold | concentration inhibiting cationic SACs (cationic SACs [4]): 200 to 600 nM | reduction of average inward currents [5, 6]: 70% | reduction of average outward currents [5, 6]: 90% | unitary current amplitude, inward ([5]; 5 mM GsMTx4 [sic], 250 mV pipette potential as printed, control 1.74 pA): 1.58 pA | unitary current amplitude, outward ([5]; 5 mM GsMTx4 [sic], pipette potential printed 150 mV / 50 mV, control 1.10 pA): 1.08 pA | change in outward unitary current amplitude ([5]; in presence of GsMTx4): no change; also recorded: no observable effect | reduction in inward unitary current amplitude ([5]; in presence of GsMTx4): 10% | inhibition of stretch activated channels (TRPC1): inhibited stretch activated channels

D-GsMTx4: All-D-amino-acid enantiomer of GsMTx4, SEQ ID NO:1 GCLEFWWKCNPNDDKCCRPKLKCSKLFKLCNFSF-amide (G[dC][dL][dE][dF][dW][dW][dK][dC][dN][dP][dN][dD][dD][dK][dC][dC][dR][dP][dK][dL][dK][dC][dS][dK][dL][dF][dK][dL][dC][dN][dF][dS][dF]-NH2; not fully specified (bridges); printed as GCLEFWWKCNPNDDKCCRPKLKCSKLFKLCNFSF-amide; ends and bridges not checked; also: three disulfides after oxidative folding, pairing not given here)
inhibition of SACs (averaged current) [2]: equivalent efficacy to the wild type L-form; also recorded: inhibit SACs with similar efficacy to GsMTx4; also recorded: at least as potent and may be more potent than L-GsMTx-4 | increase in gA channel appearance rates (gA channels; 400 nM D-GsMTx4): 10 fold | increase in gA channel lifetime (gA channels; 400 nM D-GsMTx4): 4 fold
